Measurements published in paper PMC8304783, “Antiadhesive Properties of Imidazolium Ionic Liquids Based on (−)-Menthol Against Candida spp” (International Journal of Molecular Sciences, 2021).

What was measured:
ALS5 = test: Real time quantitative PCR, relative gene expression; format: cell-based, C. albicans; settings: ILs 25 µM, 2 h; relative to untreated cells (100%)
Description: (§1) Fungal adhesion to biomedical surfaces is strongly related to the structure of the cell wall, and the presence of adhesins (Als proteins) on the surface of the cell. In turn, the progression to biofilm formation is dependent on the ability of C. albicans to form hyphae. In conditions similar to those above (ILs conc. = 25 µM), we examined C. albicans cell wall integrity, its ability to form hyphae, and the level of ALS genes expression, encoding Als1 and Als5 adhesins (Figure 3). […] Despite some reduction, the result was not statistically significant (p = 0.12). On the other hand, after the treatment with IL 2a, the expression of ALS1 and ALS5 genes was reduced by 50 or 55%, respectively (Figure 3C). The results were statistically significant in both cases (p = 0.04 for either ALS gene). However, in case of compounds with alkyl substituents (1a and 1b), the reduction of gene expression was to a lesser degree. […] Despite observing a chain-length dependence, the results were not statistically significant (p = 0.07 for both ALS gene after treatment with 1b).
(§2) Figure 3 (A) C. albicans calcofluor white staining following a 2 h treatment with 1a,2a,1b ILs (conc. = 25 µM). Control experiment represents untreated calcofluor white-stained cells. Scale bar = 2.5 µm. (B) FBS-induced hyphae formation after 2 h treatment with 1a,2a,1b ILs (conc. = 25 µM). Control condition was C. albicans treated with FBS only. Scale bar = 10 µm. (C) Relative ALS1 and ALS5 gene expression in C. albicans following a 2 h treatment with 1a,2a,1b ILs (conc. = 25 µM). Gene expression levels are reported as means of 2^−∆∆CT values (n = 6) ± SD; normalized to 100% for untreated cells (control). Statistical analyses were performed by comparing expression under treatment with each IL to untreated cells. * p < 0.05.
(§3) YPD-grown C. albicans cells were pelleted, washed with PBS and treated with ILs (conc. = 25 µM) for 2 h at 37 °C. Next, the cells were pelleted, and concentrated (PBS; OD600 = 20). RNA was isolated using the Total RNA Mini Kit (A&A Biotechnology, Gdańsk, Poland). Synthesis of cDNA and calculation of gene expression levels were performed as previously described. The following gene-specific primers were used: ACT1_F (5′-TCCAGCTTTCTACGTTTCCA-3′), ACT1_R (5′-GTCAAGTCTCTACCAGCCAA-3′), ALS1_F (5′-TGTTGGTGTGACTACTTCCT-3′), ALS1_R (5′-TGT ACC ACT GTG TCA AT-3′), ALS5_F (5′-CTCCACTAGTTATGGGGATGT-3′) and ALS5_R (5′-TGAGGGAGAAATATAAGCGTCA-3′).

ALS1 = test: as above; format: cell-based, C. albicans; settings: ILs 25 µM, 2 h; relative to untreated cells (100%)
Description: as §1, §2, §3

sheep erythroid PMs = test: Hemolysis assay; format: cell-based; settings: sheep RBCs
Description: To examine any possible toxic effect towards animal cells, ILs were tested for their lytic activity on sheep erythroid PMs, in comparison to AMB (Table 3). For this part of study, higher concentrations were selected, corresponding to MFC values of tested fungi (12.5; 25 and 50 µM in case of ILs, and 0.25; 0.5 and 1 µM in case of AMB, Table 1). The compounds were ranked in terms of hemolytic activity as follows: 1a > 1b > 2a. IL with alkoxymethyl chain (2a) produced <5% hemolysis, regardless of the concentration used. Compounds with alkyl substituents (1a and 1b) were more hemolytic in 12.5 than in 25 µM concentrations, and in the highest concentration (50 µM), both compounds produced >10% and >5% hemolysis, respectively.
ILs were tested for hemolytic activity, as described previously. Briefly, 5 mL of fresh sheep blood was centrifuged (2000 rpm, 15 min), washed with PBS and resuspended in PBS to achieve hematocrit level of 50%. Red blood cells (RBCs) were treated with ILs (concentrations = 12.5, 25 and 50 µM) for 2 h at 37 °C. Afterwards, RBCs were centrifuged (2000 rpm, 5 min) and the absorbance of the supernatant was measured at 540 nm (ASYS UVM 340 Biogenet). The percentage of hemolysis was determined in comparison to the hemoglobin absorbance released by a 1% SDS solution (100% hemolysis).

C. albicans = test: Calcofluor white staining (cell wall integrity); format: cell-based; settings: ILs 25 µM, 2 h, 37 °C
Description: as §1
Calcofluor white was used to assess cell wall integrity in C. albicans, following our protocol. YPD-grown C. albicans cells were pelleted, washed with PBS and treated with ILs (conc. = 25 µM) for 2 h at 37 °C. Afterwards, the samples were washed with PBS, stained with calcofluor white (final conc. = 25 µM) for 5 min. Then, cell suspensions were washed with PBS, pelleted and observed under the Zeiss (Poznań, Poland) Axio Imager A2 microscope equipped with Zeiss Axiocam 503 mono microscope camera and the Zeiss HBO100 mercury lamp.

[1] = ILs conc. 12.5 µM, 2 h, 37 °C, 1% SDS = 100% hemolysis
[2] = ILs conc. 25 µM, 2 h, 37 °C, 1% SDS = 100% hemolysis
[3] = ILs conc. 50 µM, 2 h, 37 °C, 1% SDS = 100% hemolysis

SMILES | Reduction of ALS5 gene expression (ALS5) | Reduction of ALS1 gene expression (ALS1) | Hemolytic activity (sheep erythroid PMs; [1]) | Hemolytic activity (sheep erythroid PMs; [2]) | Hemolytic activity (sheep erythroid PMs; [3]) | Calcofluor white staining of chitin (cell wall integrity) (C. albicans) | Hemolytic activity (sheep erythroid PMs; regardless of the concentration used (12.5; 25 and 50 µM))
CCCCCCCCCn1cc[n+](CO[C@@H]2C[C@H](C)CC[C@H]2C(C)C)c1 [1a, 1-[(1R,2S,5R)-(−)-menthoxymethyl]-3-nonylimidazolium chloride] | 10% | 20% | 4.81 ± 0.02 % | 1.51 ± 0.53% | 11.56 ± 2.13% | well-defined, intense chitin fluoresce with clearly visible bud scars, comparable with the control staining | –
CCCCCCCCCCn1cc[n+](CO[C@@H]2C[C@H](C)CC[C@H]2C(C)C)c1 [1b, 3-decyl-1-[(1R,2S,5R)-(−)-menthoxymethyl]imidazolium chloride] | 40% | 45% | 2.1 ± 0.36% | 3.01 ± 0.39% | 3.23 ± 0.6% | well-defined, intense chitin fluoresce with clearly visible bud scars, comparable with the control staining | –
CCCCCCCCCOCn1cc[n+](CO[C@@H]2C[C@H](C)CC[C@H]2C(C)C)c1 [2a, 1-(1R,2S,5R)-(−)-menthoxymethyl-3-nonyloxymethylimidazolium chloride] | 55% | 50% | 4.55 ± 0.82% | 1.78 ± 0.44% | 6.09 ± 0.48 % | low fluorescence intensity and thinner calcofluor white-stained chitin layer surrounding cells than the controls | < 5%
